Source: patent US5032597A, “Method of using phenylquinolinecarboxylic acids and derivatives for lymthoid leukemia treatment in a mammal” (priority 1987, dated 1991)
≈ marks a conversion by molar mass, not a printed value. Where “and” joins values, the source holds several entries; their conditions need not be identical. Identical values can stand only once. Counter-ions that a name gives are not always drawn. Like-named read-outs stand apart in the source and are kept apart here.

Columns and labels:
L1210 leukemia = assay: Lymphoid Leukemia L1210, survival of tumored mice; type: in vivo, CD2F1 mice; settings: for response vs control in vivo at 50 mg/kg: 50 mg/kg i.p.; for response vs control in vivo at 400 mg/kg: 400 mg/kg i.p.; for response vs control in vivo at 200 mg/kg: 200 mg/kg i.p.; for response vs control in vivo at 300 mg/kg: 300 mg/kg i.p.; for response vs control in vivo at 12.5 mg/kg: 12.5 mg/kg i.p.
How it was run: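 Male CD2 F1 mice, six per group, received 10^5 L1210 cells i.p. on day 0. Compounds in hydroxypropylcellulose, saline/Tween 80 or saline were given i.p. at various doses once daily on days 1-9, with vehicle controls.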

[1] = test system: human colon carcinoma cells HCT-15; assay: Human colon tumor test in vitro, HCT-15 cell growth inhibition; type: cell-based; settings: for in vitro HCT-15 ID50 (50 percent inhibition of number of doublings): 4320 min; for IC50: Homo sapiens, HCT-15, 72 h, read-out: in vitro HCT-15 ID50 (50 percent inhibition of number of doublings)
Procedure: The compound of this invention were also tested for their ability to inhibit the growth of human colon carcinoma cells in vitro.
The human colon carcinoma cells, designated HCT-15, were derived from a specimen of an adenocarcinoma of human colon removed during surgery. The cells were grown in Roswell Park Medical Institute (RPMI) Medium 1640 supplemented with 10% heat inactivated fetal calf serum, penicillin (100 units/ml), streptomycin (100 μg/ml), gentamicin (20 μg/ml), fungizone (25 μg/ml), 0.075 percent sodium bicarbonate, […] 4-(2-hydroxyethyl)-1-piperazineethanesulfonic acid and […] N-tris(hydroxymethyl)methylglycine. […] On day 1 cells from sample dishes were harvested using trypsin (0.25%) treatment and counted with a hemocytometer to determine the number of cells per dish at the time of the addition of the compounds. Compounds of this invention were added in varying concentrations to other cultures. On day 4, treated and control cultures were harvested by trypsin treatment and the number of cells was determined. The number of doublings for the control cells was determined from the cell numbers on days 1 and 4. The ID50, the concentration of compound required to inhibit by 50 percent the number of doublings, was then calculated from the dose-response curve in which cell numbers were plotted on log-log paper against compound concentrations in micrograms per ml.

[2] = HCT-15 cells, compound day 1 to day 4
[3] = Mus musculus, L1210, ip, 720 h, 75 mg/kg i.p., read-out: L1210 Leukemia % T/C (median survival time)
[4] = Mus musculus, L1210, ip, 720 h, nonoptimal Q1DX9 instead of Q3DX9, read-out: L1210 Leukemia % T/C (median survival time)
[5] = Mus musculus, L1210, ip, 720 h, read-out: L1210 Leukemia % T/C (median survival time)
[6] = Mus musculus, L1210, ip, 720 h, 100 mg/kg i.p., read-out: L1210 Leukemia % T/C (median survival time)

Cc1c(-c2ccc(-c3ccc(F)cc3)cc2)nc2ccc(F)cc2c1C(=O)O [Example 177]
L1210 Leukemia % T/C (median survival time) (L1210 leukemia; 37.5 mg/kg i.p.): 172% | in vitro HCT-15 ID50 (50 percent inhibition of number of doublings) [1, 2]: < 0.50 µg/mL

Cc1ccc2c(C(=O)O)c(C)c(-c3ccc(-c4ccccc4)cc3)nc2c1 [Example 145]
response vs control in vivo at 75 mg/kg (L1210 leukemia; [3]): 132% | IC50 [1, 2]: < 0.5 µg/mL

Cc1c(-c2ccc(C3CCCCC3)cc2)nc2ccc(Cl)cc2c1C(=O)O [Example 93]
response vs control in vivo at 50 mg/kg (L1210 leukemia; [4]): 101% | in vitro HCT-15 ID50 (50 percent inhibition of number of doublings) [1, 2]: 0.06 µg/mL and 0.04 µg/mL

Cc1c(-c2ccc(-c3ccccc3F)cc2)nc2ccc(F)cc2c1C(=O)OCCN(C)C [Example 197, 6-Fluoro-2-(2'-fluoro-1,1'-biphenyl-4-yl)-3-methyl-[(2dimethylamino)ethyl]ester-4-quinolinecarboxylic acid]
response vs control in vivo at 50 mg/kg (L1210 leukemia; [5]): 179% | in vitro HCT-15 ID50 (50 percent inhibition of number of doublings) [1, 2]: < 0.01 µg/mL

Cc1ccc2nc(-c3ccc(C4CCCCC4)cc3)c(C)c(C(=O)O)c2c1 [Example 6]
response vs control in vivo at 400 mg/kg (L1210 leukemia; [5]): 162% | in vitro HCT-15 ID50 (50 percent inhibition of number of doublings) [1, 2]: 0.24 µg/mL

Cc1c(-c2ccc(-c3ccc(Br)cc3)cc2)nc2ccc(F)cc2c1C(=O)O [Example 12]
response vs control in vivo at 50 mg/kg (L1210 leukemia; [5]): 261% | IC50 [1, 2]: 1 µg/mL (≈ 2.29 µM)

Cc1cc2c(C(=O)O)c(C)c(-c3ccc(-c4ccccc4)cc3)nc2cc1Cl [Example 148]
response vs control in vivo at 37.5 mg/kg (L1210 leukemia; Mus musculus, L1210, ip, 720 h, 37.5 mg/kg i.p., nonoptimal Q1DX9 instead of Q3DX9, read-out: L1210 Leukemia % T/C (median survival time)): 102% | in vitro HCT-15 ID50 (50 percent inhibition of number of doublings) [1, 2]: > 5.00 µg/mL

Cc1ccc(-c2ccc(-c3nc4ccc(F)c(Cl)c4c(C(=O)O)c3C)cc2)cc1 [Example 168]
L1210 Leukemia % T/C (median survival time) (L1210 leukemia; 100 mg/kg i.p.): 148% | IC50 [1, 2]: 0.04 µg/mL (≈ 0.0986 µM)

Cc1cc2c(C(=O)O)c(C)c(-c3ccc(-c4ccccc4)cc3)nc2cc1Cl [Example 58]
response vs control in vivo at 150 mg/kg (L1210 leukemia; Mus musculus, L1210, ip, 720 h, 150 mg/kg i.p., read-out: L1210 Leukemia % T/C (median survival time)): 141% | in vitro HCT-15 ID50 (50 percent inhibition of number of doublings) [1, 2]: > 0.50 µg/mL

Cc1c(-c2ccc(Oc3ccc(Cl)cc3)cc2)nc2ccc(F)cc2c1C(=O)O [Example 29]
L1210 Leukemia % T/C (median survival time) (L1210 leukemia; 18 mg/kg i.p.): 194% | IC50 [1, 2]: < 0.5 µg/mL

CCc1c(-c2ccc(C3CCCCC3)cc2)nc2ccc(C)cc2c1C(=O)O [Example 15]
response vs control in vivo at 200 mg/kg (L1210 leukemia; [5]): 158% | IC50 [1, 2]: 0.28 µg/mL (≈ 0.75 µM)

Cc1c(-c2ccc(SCc3ccccc3)cc2)nc2ccc(F)cc2c1C(=O)O [Example 26]
response vs control in vivo at 300 mg/kg (L1210 leukemia; [5]): 136% | IC50 [1, 2]: < 0.5 µg/mL

CCc1ccc2nc(-c3ccc(-c4ccccc4)cc3)c(C)c(C(=O)O)c2c1 [Example 51]
L1210 Leukemia % T/C (median survival time) (L1210 leukemia; 75 mg/kg i.p.): 173% | IC50 [1, 2]: < 0.5 µg/mL

Cc1c(-c2ccc(-c3ccc(F)cc3F)cc2)nc2ccc(F)cc2c1C(=O)O [Example 188]
response vs control in vivo at 12.5 mg/kg (L1210 leukemia; [5]): 187% | IC50 [1, 2]: < 0.01 µg/mL

Cc1c(-c2ccc(-c3ccccc3F)cc2)nc2ccc(F)cc2c1C(=O)OCCN(C)C [Example 198, [6-Fluoro-2-(2'-fluoro-1,1'-biphenyl-4-yl)3-methyl-[(2-dimethylamino)ethyl]ester-4-quinolinecarboxylic acid] hydrochloride]
response vs control in vivo at 100 mg/kg (L1210 leukemia; [6]): 178% | in vitro HCT-15 ID50 (50 percent inhibition of number of doublings) ([1]; HCT-15 cells, compound day 1 to day 4, hydrochloride): < 10^-3 μg/ml

Cc1c(-c2ccc(Oc3ccccc3)cc2)nc2ccc(F)cc2c1C(=O)O [Example 101]
response vs control in vivo at 50 mg/kg (L1210 leukemia; [5]): 154% | in vitro HCT-15 ID50 (50 percent inhibition of number of doublings) [1, 2]: 0.41 µg/mL

Cc1c(-c2ccc(C3CCCCC3)cc2)nc2ccc(Cl)cc2c1C(=O)O [Example 3]
response vs control in vivo at 400 mg/kg (L1210 leukemia; [5]): 207% | in vitro HCT-15 ID50 (50 percent inhibition of number of doublings) [1, 2]: 0.50 µg/mL

Cc1c(-c2ccc(Sc3ccccc3)cc2)nc2ccc(Cl)cc2c1C(=O)O [Example 173]
response vs control in vivo at 25 mg/kg (L1210 leukemia; Mus musculus, L1210, ip, 720 h, 25 mg/kg i.p., nonoptimal Q1DX9 instead of Q3DX9, read-out: L1210 Leukemia % T/C (median survival time)): 122% | in vitro HCT-15 ID50 (50 percent inhibition of number of doublings) [1, 2]: < 0.50 µg/mL

Cc1c(-c2ccc(SC(C)C)cc2)nc2ccc(F)cc2c1C(=O)O [Example 13]
response vs control in vivo at 400 mg/kg (L1210 leukemia; [5]): 129% | IC50 [1, 2]: 0.24 µg/mL (≈ 0.675 µM)

Cc1c(-c2ccc(-c3ccccc3)c(F)c2)nc2ccc(F)cc2c1C(=O)O [Example 207]
L1210 Leukemia % T/C (median survival time) (L1210 leukemia; 25 mg/kg i.p.): 154% | IC50 [1, 2]: 0.02 µg/mL (≈ 0.0533 µM)

CCc1ccc2nc(-c3ccc(-c4ccccc4)cc3)c(C)c(C(=O)O)c2c1 [Example 141]
L1210 Leukemia % T/C (median survival time) (L1210 leukemia; 75 mg/kg i.p.): 139% | in vitro HCT-15 ID50 (50 percent inhibition of number of doublings) [1, 2]: < 0.50 µg/mL

Cc1c(-c2ccc(-c3ccc(F)cc3)cc2)nc2cc(Cl)c(F)cc2c1C(=O)O [Example 54]
response vs control in vivo at 300 mg/kg (L1210 leukemia; [5]): 125% | IC50 [1, 2]: < 0.5 µg/mL

O=C(O)c1cc(-c2ccc(C3CCCCC3)cc2)nc2ccc(F)cc12 [Example 95]
response vs control in vivo at 100 mg/kg (L1210 leukemia; Mus musculus, L1210, ip, 720 h, 100 mg/kg i.p., nonoptimal Q1DX9 instead of Q3DX9, read-out: L1210 Leukemia % T/C (median survival time)): 108% | in vitro HCT-15 ID50 (50 percent inhibition of number of doublings) [1, 2]: 0.04 µg/mL

Cc1c(-c2ccc(-c3ccccc3)cc2)nc2ccc(Br)cc2c1C(=O)O [Example 52]
response vs control in vivo at 75 mg/kg (L1210 leukemia; [3]): 189% | IC50 [1, 2]: < 0.5 µg/mL

Cc1c(-c2ccc(Oc3ccccc3)cc2)nc2ccc(Br)cc2c1C(=O)O [Example 53]
response vs control in vivo at 75 mg/kg (L1210 leukemia; [3]): 136% | IC50 [1, 2]: < 0.5 µg/mL

Cc1c(-c2ccc(-c3ccccc3F)cc2)nc2ccc(F)cc2c1C(=O)[O-].[Na+] [Example 118, Sodium 2-(2'-Fluoro-1,1'-biphenyl-4-yl)-6-fluoro-3-methylquinoline-4-carboxylate]
response vs control in vivo at 25 mg/kg (L1210 leukemia; Mus musculus, L1210, ip, 720 h, read-out: L1210 Leukemia % T/C (median survival time), 25 mg/kg i.p.): 179% | IC50 [1]: 0.017 µg/mL

CCC(C)c1ccc(-c2nc3ccc(F)cc3c(C(=O)O)c2C)cc1 (centres unmarked) [Example 9]
response vs control in vivo at 200 mg/kg (L1210 leukemia; [5]): 127% | in vitro HCT-15 ID50 (50 percent inhibition of number of doublings) [1, 2]: 0.07 µg/mL

CSc1ccc2nc(-c3ccc(-c4ccccc4)cc3)c(C)c(C(=O)O)c2c1 [Example 161]
response vs control in vivo at 100 mg/kg (L1210 leukemia; [6]): 148% | IC50 [1, 2]: > 1 µg/mL

Cc1c(-c2ccc(-c3ccccc3F)cc2)nc2ccc(F)cc2c1C(=O)O [Example 176]
response vs control in vivo at 37 mg/kg (L1210 leukemia; Mus musculus, L1210, ip, 720 h, 37 mg/kg i.p., read-out: L1210 Leukemia % T/C (median survival time)): 175% | in vitro HCT-15 ID50 (50 percent inhibition of number of doublings) [1, 2]: < 0.50 µg/mL and 0.41 µg/mL

CCc1c(-c2ccc(C3CCCCC3)cc2)nc2ccc(C)cc2c1C(=O)O [Example 105]
response vs control in vivo at 12.5 mg/kg (L1210 leukemia; [4]): 108% | in vitro HCT-15 ID50 (50 percent inhibition of number of doublings) [1, 2]: 0.33 µg/mL

CCc1ccc(-c2ccc(-c3nc4ccc(F)cc4c(C(=O)O)c3C)cc2)cc1 [Example 40]
response vs control in vivo at 100 mg/kg (L1210 leukemia; [6]): 157% | IC50 [1, 2]: > 1 µg/mL

CCN(CC)CCOC(=O)c1c(C)c(-c2ccc(-c3ccccc3F)cc2)nc2ccc(F)cc12 [Example 201]
response vs control in vivo at 100 mg/kg (L1210 leukemia; [6]): 175% | IC50 [1, 2]: > 1 µg/mL

O=C(O)c1cc(-c2ccc(C3CCCCC3)cc2)nc2ccc(Cl)cc12 [Example 4]
response vs control in vivo at 200 mg/kg (L1210 leukemia; [5]): 128% | IC50 [1, 2]: 0.48 µg/mL (≈ 1.31 µM)

Cc1c(-c2ccc(Oc3ccccc3)cc2)nc2ccc(F)cc2c1C(=O)O [Example 11]
response vs control in vivo at 25 mg/kg (L1210 leukemia; Mus musculus, L1210, ip, 720 h, 25 mg/kg i.p., read-out: L1210 Leukemia % T/C (median survival time)): 176% | in vitro HCT-15 ID50 (50 percent inhibition of number of doublings) [1, 2]: 0.19 µg/mL
